The text below walks through data of patent publication US11472771B2, “Process for making amino diaryl ethers and amino diaryl ethers hydrochloride salts” (CELLESTIA BIOTECH AG, priority 2018, dated 2022).

Series [1] can be described thus: Solubility in water at various pH-values. As to conditions: for pH solution / soluble / calculated concentration charged: 500 mg in 14 ml; for soluble: conc. 33.33 mg/mL; for calculated concentration charged: not soluble. In kind it is physicochemical. On the procedure:
The solubilities in water of 6-(4-(tert-butyl)phenoxy)pyridin-3-amine (formula (Ia)) and the monohydrochloride salt thereof, i.e. 6-(4-(tert-butyl)phenoxy)pyridin-3-amine monohydrochloride, were assessed at various pH-values according to Tables 3 and 4. The solubility in water of 6-(4-(tert-butyl)phenoxy)pyridin-3-amine (formula (Ia)) according to Table 3 was assayed as follows: Free base 500 mg were charged into 14 mL of acidic media at pH=2, 4, at neutral pH=7 and basic pH=10 to afford suspensions within calculated concentration of appr. 35 mg/mL. The solubility in water of 6-(4-(tert-butyl)phenoxy)pyridin-3-amine monohydrochloride according to Table 4 was assayed as follows: HCl salt 100 mg each were charged into acidic media at pH=2 and 4 and neutral media pH=7 to furnish solutions. Most important observation was to that at a neutral solution at pH=7 drops down to pH=1 by charging HCl salt 100 mg.

The nature of series [2]: Solubility in water at various pH-values. In kind it is physicochemical. As to conditions: aqueous buffer, thermodynamic from solid; in 0.01% HCl; 100 mg in 190 mL; read-out: solubility limit.
Setting [3] is: 15% acetic acid soln., pH solvent 2.

Molecules are shown by their SMILES. Converted amounts (≈) assume the structure as drawn.

Regarding `CC(C)(C)c1ccc(Oc2ccc(N)cn2)cc1` [6-(4-(tert-butyl)phenoxy)pyridin-3-amine], the pH solution in series [1] (setting [3]) came to 2; in series [1] (Fluke 33643 (pH = 4)) it was 4; in series [1] (Fluke 33646 (pH = 7)) it was 7; in series [1] (Fluke 33649 (pH = 10)), 10. Moreover, the soluble entry in series [1] (setting [3]), in series [1] (Fluke 33643 (pH = 4)), in series [1] (Fluke 33646 (pH = 7)) and in series [1] (Fluke 33649 (pH = 10)) was “no” in each case. In addition, the calculated concentration charged in series [1] (setting [3]), in series [1] (Fluke 33643 (pH = 4)), in series [1] (Fluke 33646 (pH = 7)) and in series [1] (Fluke 33649 (pH = 10)) was 33.33 mg/mL throughout. Also, in series [1] (water, in words), the solubility in water entry is “very poorly soluble”. Besides, in series [2], the solubility – broadly, how much of the substance goes into solution per volume – is 530 µg/mL (≈ 2190 µM).
